Assays:
[1] = tested on: maternal HIV+ sera (antibodies); test: RIA / ELISA binding of maternal HIV+ sera to gp120 and gp41 peptides (Example 3); set-up: species or system human
How it was run: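 Peptides were coated at 10 μg/ml in carbonate buffer pH 9.6 and blocked with 1% BSA. Sera at 1:50 and 1:500 were incubated overnight at 4°C and detected with ¹²⁵I anti-human IgG (RIA) or HRP/TMB at OD450 (ELISA). Specific binding was taken as peptide minus no-peptide wells, scored as a ratio to normal human serum.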

[2] = tested on: maternal sera (antibodies); test: ELISA peptide-binding of maternal sera (Example 6); set-up: species or system human; details: for Number of Non-Transmitters which bound to peptide / Percent of Non-Transmitters which bound to peptide: N = 12; for Number of Transmitters which bound to peptide / Percent of Transmitters which bound to peptide: N = 4
Excerpt: A total of 86 maternal sera samples obtained from patients of the Hospital of the University of Pennsylvania during the third trimester of pregnancy were used in this study 58 (67%) were non-transmitters and 28 (33%) were transmitters. This is approximately consistent with the national average (i.e. a rate of transmission between 25-30%). Transmission status was based upon serological or molecular diagnosis of children (at an age of greater than 15 months) born to these mothers. Because of the constraints on the volume of serum available for many of these samples, not all sera were analyzed with all the peptides. However, each sera sample was run with at least 40 peptides.
These peptides are of an average length of 16 amino acids and covered the entire external as well as the transmembrane glycoprotein of HIV-1. Peptide binding was analyzed by ELISA essentially as described in Example 3.
The results of one study, using some of the peptides identified above among others, is provided in Table 12, which illustrates the number and percent of non-transmitters which bound to the tested peptide. The percentage designation refers to the percentage of sera samples which bound to a particular peptide. A value of greater than 0% means that at least one of the samples bound to the particular peptides.

[3] = Serum No. 1, Non-Transmission Group
[4] = Serum No. 2, Non-Transmission Group
[5] = Serum No. 3, Non-Transmission Group
[6] = Serum No. 4, Transmission Group
[7] = Serum No. 5, Transmission Group
[8] = Serum No. 6, Non-Transmission Group
[9] = Serum No. 7, Non-Transmission Group
[10] = Serum No. 8, Non-Transmission Group
[11] = Serum No. 9, Non-Transmission Group
[12] = Serum No. 10, Transmission Group
[13] = Serum No. 11, Non-Transmission Group
[14] = Serum No. 12, Non-Transmission Group
[15] = Serum No. 13, Transmission Group
[16] = Serum No. 14, Transmission Group
[17] = Serum No. 15, Transmission Group
[18] = Serum No. 16, Non-Transmission Group
[19] = Serum No. 17, Non-Transmission Group
[20] = Serum No. 18, Non-Transmission Group
[21] = Serum No. 19, Transmission Group
[22] = Serum No. 20, Non-Transmission Group

| Substance | Binding of maternal HIV+ serum to peptide (sera/NHS ratio) [1, 3] | Binding of maternal HIV+ serum to peptide (sera/NHS ratio) [1, 4] | Binding of maternal HIV+ serum to peptide (sera/NHS ratio) [1, 5] | Binding of maternal HIV+ serum to peptide (sera/NHS ratio) [1, 6] | Binding of maternal HIV+ serum to peptide (sera/NHS ratio) [1, 7] | Binding of maternal HIV+ serum to peptide (sera/NHS ratio) [1, 8] | Binding of maternal HIV+ serum to peptide (sera/NHS ratio) [1, 9] | Binding of maternal HIV+ serum to peptide (sera/NHS ratio) [1, 10] | Binding of maternal HIV+ serum to peptide (sera/NHS ratio) [1, 11] | Binding of maternal HIV+ serum to peptide (sera/NHS ratio) [1, 12] | Binding of maternal HIV+ serum to peptide (sera/NHS ratio) [1, 13] | Binding of maternal HIV+ serum to peptide (sera/NHS ratio) [1, 14] | Binding of maternal HIV+ serum to peptide (sera/NHS ratio) [1, 15] | Binding of maternal HIV+ serum to peptide (sera/NHS ratio) [1, 16] | Binding of maternal HIV+ serum to peptide (sera/NHS ratio) [1, 17] | Binding of maternal HIV+ serum to peptide (sera/NHS ratio) [1, 18] | Binding of maternal HIV+ serum to peptide (sera/NHS ratio) [1, 19] | Binding of maternal HIV+ serum to peptide (sera/NHS ratio) [1, 20] | Binding of maternal HIV+ serum to peptide (sera/NHS ratio) [1, 21] | Binding of maternal HIV+ serum to peptide (sera/NHS ratio) [1, 22] | other results |
| --- | --- | --- | --- | --- | --- | --- | --- | --- | --- | --- | --- | --- | --- | --- | --- | --- | --- | --- | --- | --- | --- |
| CIVQQQNNLLRAI-EAQQHLLQLTVWGIKQL (CIVQQQNNLLRAIEAQQHLLQLTVWGIKQL) [Peptide 560] | + (which value is between 2 to 3) | - (specific OD450 or cpm of sera sample binding to peptide divided by the specific OD450 or cpm of NHS sample binding to peptide, which value is less than 2) | - (specific OD450 or cpm of sera sample binding to peptide divided by the specific OD450 or cpm of NHS sample binding to peptide, which value is less than 2) | - (specific OD450 or cpm of sera sample binding to peptide divided by the specific OD450 or cpm of NHS sample binding to peptide, which value is less than 2) | - (specific OD450 or cpm of sera sample binding to peptide divided by the specific OD450 or cpm of NHS sample binding to peptide, which value is less than 2) | - (specific OD450 or cpm of sera sample binding to peptide divided by the specific OD450 or cpm of NHS sample binding to peptide, which value is less than 2) | - (specific OD450 or cpm of sera sample binding to peptide divided by the specific OD450 or cpm of NHS sample binding to peptide, which value is less than 2) | - (specific OD450 or cpm of sera sample binding to peptide divided by the specific OD450 or cpm of NHS sample binding to peptide, which value is less than 2) | - (specific OD450 or cpm of sera sample binding to peptide divided by the specific OD450 or cpm of NHS sample binding to peptide, which value is less than 2) | - (specific OD450 or cpm of sera sample binding to peptide divided by the specific OD450 or cpm of NHS sample binding to peptide, which value is less than 2) | - (specific OD450 or cpm of sera sample binding to peptide divided by the specific OD450 or cpm of NHS sample binding to peptide, which value is less than 2) | - (specific OD450 or cpm of sera sample binding to peptide divided by the specific OD450 or cpm of NHS sample binding to peptide, which value is less than 2) | - (specific OD450 or cpm of sera sample binding to peptide divided by the specific OD450 or cpm of NHS sample binding to peptide, which value is less than 2) | - (specific OD450 or cpm of sera sample binding to peptide divided by the specific OD450 or cpm of NHS sample binding to peptide, which value is less than 2) | - (specific OD450 or cpm of sera sample binding to peptide divided by the specific OD450 or cpm of NHS sample binding to peptide, which value is less than 2) | - (specific OD450 or cpm of sera sample binding to peptide divided by the specific OD450 or cpm of NHS sample binding to peptide, which value is less than 2) | - (specific OD450 or cpm of sera sample binding to peptide divided by the specific OD450 or cpm of NHS sample binding to peptide, which value is less than 2) | - (specific OD450 or cpm of sera sample binding to peptide divided by the specific OD450 or cpm of NHS sample binding to peptide, which value is less than 2) | - (specific OD450 or cpm of sera sample binding to peptide divided by the specific OD450 or cpm of NHS sample binding to peptide, which value is less than 2) | - (specific OD450 or cpm of sera sample binding to peptide divided by the specific OD450 or cpm of NHS sample binding to peptide, which value is less than 2) | Number of Non-Transmitters which bound to peptide [2]: 0; Percent of Non-Transmitters which bound to peptide [2]: 0%; Number of Transmitters which bound to peptide [2]: 0; Percent of Transmitters which bound to peptide [2]: 0% |
| DREINNYTSLIHSLI [Peptide 40] | - (specific OD450 or cpm of sera sample binding to peptide divided by the specific OD450 or cpm of NHS sample binding to peptide, which value is less than 2) | - (specific OD450 or cpm of sera sample binding to peptide divided by the specific OD450 or cpm of NHS sample binding to peptide, which value is less than 2) | - (specific OD450 or cpm of sera sample binding to peptide divided by the specific OD450 or cpm of NHS sample binding to peptide, which value is less than 2) | - (specific OD450 or cpm of sera sample binding to peptide divided by the specific OD450 or cpm of NHS sample binding to peptide, which value is less than 2) | - (specific OD450 or cpm of sera sample binding to peptide divided by the specific OD450 or cpm of NHS sample binding to peptide, which value is less than 2) | - (specific OD450 or cpm of sera sample binding to peptide divided by the specific OD450 or cpm of NHS sample binding to peptide, which value is less than 2) | - (specific OD450 or cpm of sera sample binding to peptide divided by the specific OD450 or cpm of NHS sample binding to peptide, which value is less than 2) | - (specific OD450 or cpm of sera sample binding to peptide divided by the specific OD450 or cpm of NHS sample binding to peptide, which value is less than 2) | - (specific OD450 or cpm of sera sample binding to peptide divided by the specific OD450 or cpm of NHS sample binding to peptide, which value is less than 2) | - (specific OD450 or cpm of sera sample binding to peptide divided by the specific OD450 or cpm of NHS sample binding to peptide, which value is less than 2) | - (specific OD450 or cpm of sera sample binding to peptide divided by the specific OD450 or cpm of NHS sample binding to peptide, which value is less than 2) | - (specific OD450 or cpm of sera sample binding to peptide divided by the specific OD450 or cpm of NHS sample binding to peptide, which value is less than 2) | - (specific OD450 or cpm of sera sample binding to peptide divided by the specific OD450 or cpm of NHS sample binding to peptide, which value is less than 2) | - (specific OD450 or cpm of sera sample binding to peptide divided by the specific OD450 or cpm of NHS sample binding to peptide, which value is less than 2) | - (specific OD450 or cpm of sera sample binding to peptide divided by the specific OD450 or cpm of NHS sample binding to peptide, which value is less than 2) | - (specific OD450 or cpm of sera sample binding to peptide divided by the specific OD450 or cpm of NHS sample binding to peptide, which value is less than 2) | - (specific OD450 or cpm of sera sample binding to peptide divided by the specific OD450 or cpm of NHS sample binding to peptide, which value is less than 2) | - (specific OD450 or cpm of sera sample binding to peptide divided by the specific OD450 or cpm of NHS sample binding to peptide, which value is less than 2) | - (specific OD450 or cpm of sera sample binding to peptide divided by the specific OD450 or cpm of NHS sample binding to peptide, which value is less than 2) | - (specific OD450 or cpm of sera sample binding to peptide divided by the specific OD450 or cpm of NHS sample binding to peptide, which value is less than 2) | Number of Non-Transmitters which bound to peptide [2]: 1; Percent of Non-Transmitters which bound to peptide [2]: 8.3%; Number of Transmitters which bound to peptide [2]: 0; Percent of Transmitters which bound to peptide [2]: 0% |
